From patent US4665157A, “Peptide antagonists of neurokinin B” (priority 1985, dated 1987)
Where a SMILES comes first, the peptide text is derived from it. [ ]: non-standard residue; d: D form. Nle = CCCC[C@H](N)C(=O)O

Assays:
[1] = tested on: substance P-induced scratching; assay type: in vivo, Male, Swiss CD-1 mice; design: ID50 vs SP: unit not given beside the values; settings: for % inhibition of SP-induced scratching: mouse, in vivo; for ID50 vs SP: dose of antagonist inhibiting SP-induced scratching by 50%, intrathecal, injected simultaneously with SD90 dose of SP, parentheses = 95% fiducial limits
Description: (§1) The tachykinin-induced mouse scratching assay was used to evaluate the ability of the Neurokinin B analogs of the invention to act in vivo as antagonists. This test was chosen since scratching is well documented to be a reproducible, characteristic central effect of tachykinin agonists which can be blocked by tachykinin antagonists, see Hylden and Wilcox, Brain Res. 217: 212 (1981); Piercey et al., Science 214: 1361, (1981); Vaught et al., Eur. Journal Pharmacol. 103: 355, (1984).
(§2) Male, Swiss CD-1 mice (Charles River, Kingston, NY) weighing between 18-24 g were used in all experiments. They were allowed food and water ad libitum and each animal was used only once. Substance P, Neurokinin B, bombesin (a compound which induces scratching but is not a tachykinin), [D-Pro^2,D-Trp^7,9 ]-Substance P(1-11) and the product of Example 1 were dissolved in 0.01N acetic acid. The products of Examples 2, 3 and 4 were dissolved in 0.1N NaOH; DMSO and H2 O (1:1:4.7 v/v). These vehicles, injected intrathecally to mice, produced no overt behavioral effects.
To determine the activity of substance P, Neurokinin B and bombesin, these agonists were injected intrathecally (max. volume […]) according to the method of Hylden et al. described in Eur. Journal Pharmacol. 67: 313 (1980). Following the intrathecal injection of agonist, the animals were placed into individual plexiglass observation chambers and observed for five min for the occurrence of the characteristic reciprocal hind-limb scratching response (caudallyn directed scratching of the body interchangeably by the hind limbs). Animals were scored as either responders or non-responders. In order to assess the ability and specificity of the Neurokinin B analogs to block the scratching produced by substance P, Neurokinin B and bombesin, varying doses of the antagonists were injected simultaneously with that dose of agonist causing 90% of the animals to scratch. The ID50 (that dose of antagonist which inhibits scratching produced by an agonist by 50%) was then calculated by probit analysis. In some instances, the percent inhibitions of scratching for a given dose of agonist was compared to control values by the Fishers Exact Test. The following results were obtained in the Scratching Assay: […]

[2] = Mouse Hot Plate Assay (analgesia); assay type: in vivo, mice; settings: for ED50: dose producing analgesia in 50% of animals, hot plate 48° C., parentheses = 95% fiducial limits; for ED50 / Duration of Action: intrathecal; for Duration of Action: duration of the analgesic effect; for Onset of Action: time to peak analgesic activity following intrathecal injection
Protocol: Analgesic Utility: The Mouse Hot Plate Assay was used to determine the activity of compounds of the invention as analgesics. The compound vehicles were as described above in the Scratching Assay.
Mouse Hot Plate Assay: The hot plate assay was used to assess analgesic potency, see Vaught and Chipkin, Eur. Journal. Pharmacol. 79, 167-173 (1982) and references therein. In these experiments the hot plate apparatus (Technilab Instruments, Inc.) was maintained at 48±0.05° C. The response measure was the time interval between the animal being placed on the heated surface and licking or shaking its hindpaw. Test drug was administered intrathecally and at appropriate times following drug administration the reaction times redetermined. A reaction time for drug-treated animals greater than three standard deviations from the mean of the control reaction times for all the animals in the group was the criterion for an analgesic response. At least three doses with 10 animals per dose were used to construct dose response curves.

[3] = tested on: Neurokinin B-induced scratching; assay: Tachykinin-induced mouse scratching assay: antagonism of Neurokinin B-induced scratching; assay type: in vivo, Male, Swiss CD-1 mice; design: unit not given beside the values; settings: dose of antagonist inhibiting NK-induced scratching by 50%; intrathecal, injected simultaneously with SD90 dose of NK; parentheses = 95% fiducial limits
Description: The tachykinin-induced mouse scratching assay was used to evaluate the ability of the Neurokinin B analogs of the invention to act in vivo as antagonists.
Male, Swiss CD-1 mice (Charles River, Kingston, NY) weighing between 18-24 g were used in all experiments. They were allowed food and water ad libitum and each animal was used only once.
Following the intrathecal injection of agonist, the animals were placed into individual plexiglass observation chambers and observed for five min for the occurrence of the characteristic reciprocal hind-limb scratching response (caudallyn directed scratching of the body interchangeably by the hind limbs). Animals were scored as either responders or non-responders. In order to assess the ability and specificity of the Neurokinin B analogs to block the scratching produced by substance P, Neurokinin B and bombesin, varying doses of the antagonists were injected simultaneously with that dose of agonist causing 90% of the animals to scratch. […] In some instances, the percent inhibitions of scratching for a given dose of agonist was compared to control values by the Fishers Exact Test.

[4] = tested on: bombesin-induced scratching; assay type: in vivo, Male, Swiss CD-1 mice; settings: % inhibition of scratching at 20 μg antagonist, intrathecal
Description: as §1, §2
To determine the activity of substance P, Neurokinin B and bombesin, these agonists were injected intrathecally (max. volume […]) according to the method of Hylden et al. described in Eur. Journal Pharmacol. 67: 313 (1980). […] Animals were scored as either responders or non-responders. […]

Compound	% inhibition of SP-induced scratching [1]	ED50 [2]	Duration of Action [2]	Onset of Action [2]	ID50 vs. NK [3]	ID50 vs SP [1]	% Inhibition of Bombesin [4]
CCCC[C@H](NC(=O)[C@H](CC(C)C)NC(=O)[C@@H](Cc1c[nH]c2ccccc12)NC(=O)[C@@H](NC(=O)[C@@H](Cc1c[nH]c2ccccc12)NC(=O)[C@H](Cc1ccccc1)NC(=O)[C@@H](CC(=O)O)NC(=O)[C@H](Cc1c[nH]cn1)NC(=O)[C@H]1CCCN1C(=O)[C@@H](N)CC(=O)O)C(C)C)C(N)=O [Example 4, Asp^1 -D-Pro^2 -His^3 -D-Asp^4 -Phe^5 -D-Trp^6 -Val^7 -D-Trp^8 -Leu^9 -Nle^10 -NH2] (H-D[dP]H[dD]F[dW]V[dW]L[Nle]-NH2)	50%	10.0(5.5-18.2) μg	≤ 60 min	20 min	–	–	–
[D-Pro^2,D-Trp^7,9 ]-Substance P(1-11) [[D-Pro^2,D-TrP^7,9]-SP(1-11), reference compound]	–	5.5(3.2-6.8) μg	≤ 15 min	5 min	2.6(0.8-4.8)	4.6(2.9-6.9)	20%
CCCC[C@H](NC(=O)[C@H](CC(C)C)NC(=O)[C@@H](Cc1c[nH]c2ccccc12)NC(=O)[C@@H](NC(=O)[C@@H](Cc1c[nH]c2ccccc12)NC(=O)[C@H](Cc1ccccc1)NC(=O)[C@@H](CC(=O)O)NC(=O)[C@H](Cc1c[nH]cn1)NC(=O)[C@H]1CCCN1C(=O)[C@H](N)CC(=O)O)C(C)C)C(N)=O [Example 3, D-Asp^1 -D-Pro^2 -His^3 -D-Asp^4 -Phe^5 -D-Trp^6 -Val^7 -D-Trp^8 -Leu^9 -Nle^10 -NH2] (H-[dD][dP]H[dD]F[dW]V[dW]L[Nle]-NH2)	70%	10.4(7.7-13.2) μg	≤ 90 min	20 min	–	–	–
CCCC[C@H](NC(=O)[C@H](CC(C)C)NC(=O)[C@@H](Cc1c[nH]c2ccccc12)NC(=O)[C@@H](NC(=O)[C@@H](Cc1c[nH]c2ccccc12)NC(=O)[C@H](Cc1ccccc1)NC(=O)[C@H](CC(=O)O)NC(=O)[C@H](Cc1c[nH]cn1)NC(=O)[C@H]1CCCN1C(=O)[C@@H](N)CC(=O)O)C(C)C)C(N)=O [Example 1, Asp^1 -D-Pro^2 -His^3 -Asp^4 -Phe^5 -D-Trp^6 -Val^7 -D-Trp^8 -Leu^9 -Nle^10 -NH2] (H-D[dP]HDF[dW]V[dW]L[Nle]-NH2)	–	4.6(3.0-6.4) μg	≥ 90 min	20 min	0.6(0.3-1.2)	3.4(2.3-5.2)	–
CCCC[C@H](NC(=O)[C@H](CC(C)C)NC(=O)[C@@H](Cc1c[nH]c2ccccc12)NC(=O)[C@@H](NC(=O)[C@@H](Cc1c[nH]c2ccccc12)NC(=O)[C@H](Cc1ccccc1)NC(=O)[C@H](CC(=O)O)NC(=O)[C@H](Cc1c[nH]cn1)NC(=O)[C@H]1CCCN1C(=O)[C@H](N)CC(=O)O)C(C)C)C(N)=O [Example 2, D-Asp^1 -D-Pro^2 -His^3 -Asp^4 -Phe^5 -D-Trp^6 -Val^7 -D-Trp^8 -Leu^9 -Nle^10 -NH2] (H-[dD][dP]HDF[dW]V[dW]L[Nle]-NH2)	90%	7.5(5.9-9.5) μg	120 min	20 min	–	–	–
